Test results: patent publication US10835572B2, “Composition for external application” (ROHTO PHARMACEUTICAL CO., LTD., priority 2014, dated 2020)

Test: Discoloration on storage: rate of increase in ΔE*ab (color difference meter)
Type: physicochemical
Conditions: stored 4 days at 60° C. under protection from light; FIG. 4-8
Procedure: 20 ml aliquots of the compositions of the examples and comparative examples were filled into a glass bottle followed by determination of the initial ΔE*ab(0) value with a color difference meter (Spectrophotometer Model CM-5, Konica Minolta). At this time, purified water was used for the reference color. ΔE*ab(0) values are represented by the equation indicated below and used as an indicator to represent the degree of coloring of the compositions of the examples and comparative examples. ΔE*ab={(ΔL*)^2+(Δa*)^2+(Δb*)^2}^1/2 [Equation 1]
The L* value (ΔL*) is a value relating to lightness, the a* value (Δa*) is a value relating to red/green opponent colors in both directions, and the b* value (Δb*) is a value relating to blue/yellow opponent colors in both directions. The compositions of the aforementioned examples and comparative examples were each stored (under protection from light) at 40° C., 50° C. and 60° C. and then taken out after 4 days followed by determination of the ΔE*ab(4) value with the aforementioned color difference meter.
The rate of increase in the ΔE*ab values attributable to being stored for 4 days at the aforementioned temperatures was determined using the equation indicated below. The term “(D65)” in the equation indicates the use of Illuminant D65. Rate of increase in ΔE*ab(D65)=ΔE*ab(65)(4)/[…]

O=C1O[C@H]([C@@H](O)CO)C(O)=C1O[C@H]1O[C@H](CO)[C@@H](O)[C@H](O)[C@H]1O [ascorbyl glucoside]
discoloration, rate of increase in ΔE*ab (in words): discoloration was determined to not occur
